According to PubChem BioAssay AID2060883 (Molecular Pharmacology Branch, DTP, NCI, 2025):

Tested on: 843782-103-R-J1-PDC complex spheroid viability
Experiment: Anticancer human tumor 843782-103-R-J1-PDC patient-derived lung adenocarcinoma cell line growth inhibition [RAS]
Settings: for IC50: curve of first compound; for viability, T/C: stronger effect = lower value
Description: RAS pathway inhibitors in Combinations in Complex Spheroids
A high-throughput screen of multi-cell type tumor spheroids was designed to identify active combinations of RAS pathway inhibitors and targeted small molecules. Complex spheroids include a stromal component modeled by human endothelial cells (HUVEC) and fibroblasts modeled by human mesenchymal stem cells (MSCs). The concentration ranges selected for each drug and investigational agent were based upon clinically achievable concentrations if the clinical Cmax of the agent was known.
Compounds. The drugs and investigational agents: abemaciclib (NSC768073), cobimetinib (NSC768068), divarasib (GDC6063, NSC841802), docetaxel (NSC628503), GDC-1971 (RLY-1971, NSC841576), gemcitabine (NSC613327), inavolisib (NSC800729), ipatasertib (NSC767898), KB-0742 (NSC834161), MRTX-1133 (NSC836407), osimertinib (NSC779217), RMC-4630 (NSC839698), RMC-6236 (NSC851965), RMC-6291 (NSC852671), Ro-3306 (NSC812927), sapanisertib (NSC764658), SN-38 (NSC673596), staurosporine (NSC755774), SY5609 (NSC837396), and tovorafenib (DAY101, NSC766906), were obtained from the National Cancer Institute (NCI) Developmental Therapeutics Program Chemical Repository. The FDA-approved anticancer drug set is available from the NCI Developmental Therapeutics Program. […] The stock solutions were prepared in dimethyl sulfoxide (DMSO, Sigma-Aldrich, St. Louis, MO, cat. D2650) at 800-fold the tested concentration and stored at -70 degrees C prior to their use. All drugs and investigational agents were tested over a range starting from a high concentration at or near the clinical Cmax and decreasing in half-log increments. If the clinical Cmax for an agent had not been determined, the highest concentration tested was 10 microM.
Cell Culture. All cells were maintained in an incubator at 37 degrees C and 5% CO2 with 95% humidity. The PDC lines were cultured according to standard operating procedures established by the NCI PDMR. All PDCs were thawed and cultured in Matrigel-coated flasks prepared with a working solution of 1X Ham's F-12 nutrient mix, without supplementation (Invitrogen, Waltham, MA, cat. 11765054), 100 U/mL penicillin-streptomycin (Invitrogen, cat. 15140122), and 2.5% Matrigel (Corning Inc., Corning, NY, cat. 354248) for the first three passages. The 362531-283-R-J2-PDC and 782815-120-R-J1-PDC lines were cultured in 6C/Colon 1B media, which includes advanced DMEM/F-12 (Thermo Fisher Scientific, cat. 12634028), 10 mM HEPES (Thermo Fisher Scientific, cat. 15630080), 1X GlutaMAX supplement (Thermo Fisher Scientific, cat. 35050061), 0.1 mg/mL primocin (InvivoGen, San Diego, CA, cat. ant-pm-2), 10% defined fetal bovine serum, heat inactivated (HyClone Laboratories Inc., Logan, UT, cat. SH30070.03HI), 50% L-WRN conditioned media (ATCC, cat. CRL-3276), 1.25 mM N-Acetyl-L-cysteine (Sigma-Aldrich, cat. A9165), 10 mM nicotinamide (Sigma-Aldrich, cat. N0636), 1X B-27 supplement (Thermo Fisher Scientific, cat. 17504044), 1X N-2 supplement (Thermo Fisher Scientific, cat. 17502048), 50 ng/mL human EGF (Thermo Fisher Scientific, cat. PHG0311), and 10 microM Y-27632 dihydrochloride (Tocris Bioscience, cat. 1254). The K12877-001-R-J1-PDC line was cultured in 6I media, which includes all 6C/Colon 1B media plus 10 ng/mL human FGF-10 (PeproTech, cat. 100-26), 1 ng/mL human FGF-2 (PeproTech, cat. 100-18B), 1 µM prostaglandin E2 (Tocris Bioscience, cat. 2296), […] hydrocortisone (Sigma-Aldrich, cat. H4001), and […] bovine insulin (Sigma-Aldrich, cat. I6634). The K86415-001-R-J1-PDC line was cultured in 6D media, which includes all 6C/Colon 1B media components minus the L-WRN conditioned media. The 485176-168-R4-J1-PDC was cultured in PANC media, which includes all 6C/Colon 1B media plus 100 ng/mL human FGF-10 (PeproTech, cat. 100-26), 500 nM SB-431542 (Selleckchem, cat. S1067), and 10 nM gastrin (Tocris Bioscience, cat. 3006). […]

[1] = second compound 0.000949 µM, first compound 0.0316 µM
[2] = second compound 0.000949 µM, first compound 0.1 µM
[3] = second compound 0.000949 µM, first compound 0.316 µM
[4] = second compound 0.000949 µM, first compound 1 µM
[5] = second compound 0.000949 µM, first compound 3.16 µM
[6] = second compound 0.000949 µM, first compound 10 µM
[7] = second compound 0.003 µM, first compound 0.0316 µM
[8] = second compound 0.003 µM, first compound 0.1 µM
[9] = second compound 0.003 µM, first compound 0.316 µM
[10] = second compound 0.003 µM, first compound 1 µM
[11] = second compound 0.003 µM, first compound 3.16 µM
[12] = second compound 0.003 µM, first compound 10 µM
[13] = second compound 0.00949 µM, first compound 0.0316 µM
[14] = second compound 0.00949 µM, first compound 0.1 µM
[15] = second compound 0.00949 µM, first compound 0.316 µM
[16] = second compound 0.00949 µM, first compound 1 µM
[17] = second compound 0.00949 µM, first compound 3.16 µM
[18] = second compound 0.00949 µM, first compound 10 µM
[19] = second compound 0.03 µM, first compound 0.0316 µM
[20] = second compound 0.03 µM, first compound 0.1 µM
[21] = second compound 0.03 µM, first compound 0.316 µM
[22] = second compound 0.03 µM, first compound 1 µM
[23] = second compound 0.03 µM, first compound 3.16 µM
[24] = second compound 0.03 µM, first compound 10 µM
[25] = second compound 0.0949 µM, first compound 0.0316 µM
[26] = second compound 0.0949 µM, first compound 0.1 µM
[27] = second compound 0.0949 µM, first compound 0.316 µM
[28] = second compound 0.0949 µM, first compound 1 µM
[29] = second compound 0.0949 µM, first compound 3.16 µM
[30] = second compound 0.0949 µM, first compound 10 µM
[31] = second compound 0.3 µM, first compound 0.0316 µM
[32] = second compound 0.3 µM, first compound 0.1 µM
[33] = second compound 0.3 µM, first compound 0.316 µM
[34] = second compound 0.3 µM, first compound 1 µM
[35] = second compound 0.3 µM, first compound 3.16 µM
[36] = second compound 0.3 µM, first compound 10 µM
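Note: viability read after seven days of compound exposure.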

Compound: NC1c2ccccc2OC12CCN(c1cnc3c(N4CCCc5ncccc54)n[nH]c3n1)CC2 (centres undefined) + CCn1c(-c2cccnc2C(C)OC)c2c3cc(ccc31)N1CCOC(CC(NC(=O)C(C(C)C)N(C)C(=O)C3(F)CCN(C(=O)C#CC(C)(C)N(C)C)CC3)C(=O)N3CCCC(N3)C(=O)OCC(C)(C)C2)C1
- IC50 (second compound 0.000949 µM): < 31.6 nM
- IC50 (second compound 0.003 µM): < 31.6 nM
- IC50 (second compound 0.00949 µM): < 31.6 nM
- IC50 (second compound 0.03 µM): < 31.6 nM
- IC50 (second compound 0.0949 µM): < 31.6 nM
- IC50 (second compound 0.3 µM): < 31.6 nM
- viability, T/C [1]: 35.5%
- viability, T/C [2]: 24.2%
- viability, T/C [3]: 17.8%
- viability, T/C [4]: 17%
- viability, T/C [5]: 11.9%
- viability, T/C [6]: 15.1%
- viability, T/C [7]: 32.3%
- viability, T/C [8]: 21.8%
- viability, T/C [9]: 20.1%
- viability, T/C [10]: 16.4%
- viability, T/C [11]: 15.2%
- viability, T/C [12]: 12.4%
- viability, T/C [13]: 27.7%
- viability, T/C [14]: 25.4%
- viability, T/C [15]: 21%
- viability, T/C [16]: 14.5%
- viability, T/C [17]: 14.9%
- viability, T/C [18]: 13.7%
- viability, T/C [19]: 28.8%
- viability, T/C [20]: 24.7%
- viability, T/C [21]: 21.4%
- viability, T/C [22]: 18.5%
- viability, T/C [23]: 15.8%
- viability, T/C [24]: 14.1%
- viability, T/C [25]: 38.2%
- viability, T/C [26]: 24.4%
- viability, T/C [27]: 24%
- viability, T/C [28]: 16.6%
- viability, T/C [29]: 15.4%
- viability, T/C [30]: 12.4%
- viability, T/C [31]: 26.1%
- viability, T/C [32]: 23.8%
- viability, T/C [33]: 18.8%
- viability, T/C [34]: 21.8%
- viability, T/C [35]: 16.9%
- viability, T/C [36]: 14.1%

Compound: CC(Nc1ccc2c(c1)OCCn1cc(N3C(=O)OCC3C(F)F)nc1-2)C(N)=O (centres undefined) + CCn1c(-c2cccnc2C(C)OC)c2c3cc(ccc31)N1CCOC(CC(NC(=O)C(C(C)C)N(C)C(=O)C3(F)CCN(C(=O)C#CC(C)(C)N(C)C)CC3)C(=O)N3CCCC(N3)C(=O)OCC(C)(C)C2)C1
- IC50 (second compound 0.000949 µM): 35.2 nM
- IC50 (second compound 0.003 µM): < 31.6 nM
- IC50 (second compound 0.00949 µM): 38.4 nM
- IC50 (second compound 0.03 µM): 34.8 nM
- IC50 (second compound 0.0949 µM): 42.1 nM
- IC50 (second compound 0.3 µM): < 31.6 nM
- viability, T/C [1]: 52.9%
- viability, T/C [2]: 31.6%
- viability, T/C [3]: 31.5%
- viability, T/C [4]: 16.4%
- viability, T/C [5]: 14.3%
- viability, T/C [6]: 7.59%
- viability, T/C [7]: 44.2%
- viability, T/C [8]: 36.5%
- viability, T/C [9]: 25.6%
- viability, T/C [10]: 25.1%
- viability, T/C [11]: 14.9%
- viability, T/C [12]: 9.07%
- viability, T/C [13]: 53%
- viability, T/C [14]: 37.7%
- viability, T/C [15]: 23.8%
- viability, T/C [16]: 19.6%
- viability, T/C [17]: 14.1%
- viability, T/C [18]: 8.01%
- viability, T/C [19]: 52%
- viability, T/C [20]: 34.8%
- viability, T/C [21]: 24.9%
- viability, T/C [22]: 18.9%
- viability, T/C [23]: 13.8%
- viability, T/C [24]: 7.4%
- viability, T/C [25]: 56%
- viability, T/C [26]: 32.5%
- viability, T/C [27]: 24.1%
- viability, T/C [28]: 21.1%
- viability, T/C [29]: 13.9%
- viability, T/C [30]: 7.55%
- viability, T/C [31]: 50.3%
- viability, T/C [32]: 35.7%
- viability, T/C [33]: 25.6%
- viability, T/C [34]: 19.4%
- viability, T/C [35]: 10.7%
- viability, T/C [36]: 6.72%
